# Measurements: US20240148709A1, “METHODS OF TREATING EYE PAIN AND EYE DISORDERS” (Aisa Pharma, Inc., priority 2022, published 2024)
# Entries after “also recorded” stand apart in the source; their conditions may differ. Marks after values point to notes of the source that are not given here.
# Experiments:
# Nav 1.7 sodium channel = Nav 1.7 sodium channel (Homo sapiens, UniProt Q15858); conditions: 20 mg dose of cilnidipine; cited from earlier work
# [1] = given orally; cited from earlier work
# [2] = 10 mg cilnidipine, healthy volunteers, single oral dose, cited from earlier work
# participants with SSc-RP [3] = test: Raynaud's attack diary endpoints (frequency, duration, severity, pain, RCS), Phase 2a study Part A; type: in vivo, human
# Description: Part A—double-blind, placebo-controlled, parallel-group, dose selection, will assess the safety and efficacy of two doses of cilnidipine (10 mg and 20 mg), alone and in combination with tadalafil. A total of 36 participants will be randomized to one of six prespecified treatment arms. Refer to FIG. 1 for treatment arms in Part A of the study. Dosing last for 12 (±2) days in which participants will self-administer daily doses of assigned treatment in the morning. Each participant will take one capsule and one tablet to blind the active therapy being received.
# During screening, the Diary will collect the following data to confirm eligibility and serve as the baseline measure for efficacy endpoints should the participant be randomized: • Number of daily Raynaud's attacks • Duration of each attack • Symptoms of each attack, including numbness, pain, tingling, color changes • Severity of each attack (all symptoms of the attack to be considered including tingling, numbness, pain, color changes) • Location of participant during each attack (inside/outside) • Pain score of each attack-using 11-point Likert scale, a validated pain scale which can be used to record intensity of pain. • Daily RCS— a validated outcome measure used to assess the level of difficulty experienced due to RP each day.
# The relevant metrics measured by this tool daily are: • Study medication • SSc-RP symptoms (Reporting an attack including duration of attack) • Severity of the attack considering all symptoms of the attack e.g. tingling, numbness, pain, color changes (VAS 0-10 cm scale) • Participant's location at the time of the attack (inside home/outside home) • Selecting symptoms experienced during the attack (tingling, numbness, pain, color changes, other) • Pain rating during the attack (11-point Likert scale) • The RCS based on how much difficulty participants had with Raynaud's today, how many attacks the participant had, and how long they lasted. Participants will also be asked to consider how much pain, numbness, or other symptoms the Raynaud's caused in fingers (including painful sores), and how much the Raynaud's alone affected the use of hands today (VAS 0-10 cm scale).
# Percent change from baseline evaluation for frequency of weekly RP attacks will be the primary efficacy endpoint. Data collected in the last 7 days of each dosing period will be used for this analysis. Screening assessments will be used as baseline for the analysis of all periods. No multiple comparison adjustment will be used to control alpha for the multiple comparisons. Mixed effects model will be used for analysis of the primary endpoint according to the crossover design. Other efficacy endpoints of continuous variables will be analyzed using similar methodology. For nominal data, chi-square tests will be applied. Generalized Estimating Equations method will be used, as appropriate, for adjusting for potential confounding factors. In addition, the final analysis will assess whether in this study of severe Raynaud's disease participants, the minimally important difference, previously concluded of 14-15 points on the 100 point RCS scale has been achieved in the cilnidipine dose group. It also will record the percentage of participants achieving a PASS (34 point difference from baseline on a 0-100 VAS) in each treatment group.
# participants with SSc-RP [4] = test: Safety: adverse events and withdrawals, Phase 2a study Part A; type: in vivo; conditions: for overall adverse event rate: all patients who received any dose of cilnidipine (n=17)
# Source text: • Incidence of treatment emergent adverse events (AEs) and serious adverse events (SAEs), including clinically significant vital signs. For Part A safety will be assessed from the time of randomization until 7 days following the last protocol dose. For Part B, participants will be followed for 28 days from the last study dose. • Serious adverse events will be monitored by a DSMB (Part A) and Drug Safety Officer (Part B) on an ongoing basis throughout the study. • Adverse events will be coded using the MedDRA and summarized by SOC, PT, and treatment group.
# Severity of AEs will be graded by the Investigator as one of: • Mild (Grade 1): A type of AE that is usually transient and may require only minimal treatment or therapeutic intervention.
# Adverse events will be coded using the most current version of the MedDRA® Version 22.0 or higher. The analysis of AEs will be based on the concept of treatment emergent AEs. Treatment emergent AEs will be tabulated by treatment group and will include the number of participants for whom the event occurred, the severity, and relationship to study drug. Treatment emergent AEs (TEAEs) leading to discontinuation and SAEs with onset after the start of study drug will also be summarized. All AEs and SAEs (including those with onset or worsening before the start of study drug) through the end of the study will be listed.
# [5] = oral dosing; cited from earlier work
# [6] = cilnidipine 10 mg and/or tadalafil 5 mg arms
# [7] = cilnidipine 20 mg arms (alone or + tadalafil 5 mg)
# Sequence of Nav 1.7 sodium channel (Q15858 whole entry): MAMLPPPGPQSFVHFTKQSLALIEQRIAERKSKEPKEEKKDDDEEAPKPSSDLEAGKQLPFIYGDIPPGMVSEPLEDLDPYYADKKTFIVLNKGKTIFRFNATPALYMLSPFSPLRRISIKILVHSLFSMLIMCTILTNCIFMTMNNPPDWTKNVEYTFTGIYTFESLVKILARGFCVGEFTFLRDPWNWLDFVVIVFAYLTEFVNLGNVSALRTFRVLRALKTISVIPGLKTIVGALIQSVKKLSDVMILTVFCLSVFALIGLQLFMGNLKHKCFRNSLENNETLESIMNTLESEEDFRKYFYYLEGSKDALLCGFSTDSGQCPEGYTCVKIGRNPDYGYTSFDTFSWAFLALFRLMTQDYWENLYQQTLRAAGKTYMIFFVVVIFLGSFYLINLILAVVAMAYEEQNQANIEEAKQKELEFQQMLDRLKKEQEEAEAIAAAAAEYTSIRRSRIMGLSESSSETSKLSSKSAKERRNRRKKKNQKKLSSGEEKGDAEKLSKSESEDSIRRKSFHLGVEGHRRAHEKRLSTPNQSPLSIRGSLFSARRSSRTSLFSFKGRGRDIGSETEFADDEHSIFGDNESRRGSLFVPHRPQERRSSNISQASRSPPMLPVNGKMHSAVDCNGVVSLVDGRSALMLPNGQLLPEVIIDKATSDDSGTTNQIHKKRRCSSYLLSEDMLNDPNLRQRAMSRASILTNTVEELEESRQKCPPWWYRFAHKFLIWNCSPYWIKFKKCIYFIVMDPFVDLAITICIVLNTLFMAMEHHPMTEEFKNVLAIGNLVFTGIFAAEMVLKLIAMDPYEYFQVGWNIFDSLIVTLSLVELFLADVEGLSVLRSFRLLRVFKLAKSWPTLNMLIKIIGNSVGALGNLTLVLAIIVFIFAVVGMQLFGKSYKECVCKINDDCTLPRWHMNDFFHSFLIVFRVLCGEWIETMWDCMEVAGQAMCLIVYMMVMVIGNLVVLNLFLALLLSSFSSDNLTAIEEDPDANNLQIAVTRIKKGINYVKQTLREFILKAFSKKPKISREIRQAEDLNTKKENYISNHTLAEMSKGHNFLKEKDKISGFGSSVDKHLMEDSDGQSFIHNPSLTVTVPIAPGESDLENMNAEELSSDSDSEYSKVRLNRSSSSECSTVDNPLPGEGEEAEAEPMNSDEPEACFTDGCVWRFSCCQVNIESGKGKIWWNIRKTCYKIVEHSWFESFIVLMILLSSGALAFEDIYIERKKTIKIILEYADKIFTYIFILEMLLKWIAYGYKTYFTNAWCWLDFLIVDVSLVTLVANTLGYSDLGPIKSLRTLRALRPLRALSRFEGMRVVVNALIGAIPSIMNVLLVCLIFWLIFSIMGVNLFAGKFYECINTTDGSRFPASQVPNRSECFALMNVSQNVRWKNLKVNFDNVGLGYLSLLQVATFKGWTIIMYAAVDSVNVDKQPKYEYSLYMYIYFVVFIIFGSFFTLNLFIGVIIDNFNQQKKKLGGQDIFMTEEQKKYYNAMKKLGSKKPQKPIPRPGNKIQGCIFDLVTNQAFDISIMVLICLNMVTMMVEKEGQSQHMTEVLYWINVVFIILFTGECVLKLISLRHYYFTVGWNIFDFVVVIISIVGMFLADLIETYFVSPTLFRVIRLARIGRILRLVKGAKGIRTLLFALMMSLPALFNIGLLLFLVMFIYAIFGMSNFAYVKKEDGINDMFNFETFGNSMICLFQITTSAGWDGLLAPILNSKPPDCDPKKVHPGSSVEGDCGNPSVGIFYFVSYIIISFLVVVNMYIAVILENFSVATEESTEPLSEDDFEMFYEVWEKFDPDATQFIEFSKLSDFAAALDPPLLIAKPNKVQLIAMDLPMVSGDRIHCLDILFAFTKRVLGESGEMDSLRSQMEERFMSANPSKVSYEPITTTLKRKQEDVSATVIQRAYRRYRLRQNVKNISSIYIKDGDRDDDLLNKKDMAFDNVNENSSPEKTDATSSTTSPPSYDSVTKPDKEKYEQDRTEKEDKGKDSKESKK
smiles,measurement,setting,value
"COCCOC(=O)C1=C(C)NC(C)=C(C(=O)OC/C=C/c2ccccc2)C1c1cccc([N+](=O)[O-])c1 (stereo not shown) [Cilnidipine, cilnidipine]",inhibition of Nav 1.7 compared to an 1800 mg dose of gabapentin,Nav 1.7 sodium channel,> 6 fold
same,protein binding in plasma,[1],98%
same,AUCinf,[2]; mean (±SD),41.2 (±20.4) ng*h/mL
same,AUClast,[2]; mean (±SD),37.0 (±17.9) ng*hr/mL
same,CL/F,[2]; mean (±SD),304.7(±147.5) L/hr
same,Cmax,[2]; mean (±SD),8.9 (±4.2) ng/mL
same,T1/2,[2]; mean (±SD),7.5(±1.0) hr
same,Tmax,[2]; median (minimum-maximum),2 (0.5-5) hr
same,"Subgroup Baseline RCS <3.5, % change",participants with SSc-RP [3]; Cilnidipine 20 mg (n = 1),baseline −42%
same,"Subgroup Baseline RCS >3.5-7.5, % change",participants with SSc-RP [3]; Cilnidipine 20 mg (n = 2),baseline −43%
same,"Subgroup attack frequency, <10 baseline, % change",participants with SSc-RP [3]; Cilnidipine 20 mg (n = 2),baseline −29%
same,"Subgroup attack frequency, >10 baseline, % change",participants with SSc-RP [3]; Cilnidipine 20 mg (n = 2),baseline −50%
same,"Average Raynaud's Pain, % change",participants with SSc-RP [3]; Cilnidipine 20 mg (n = 3),12%
same,Daily RCS Change,participants with SSc-RP [3]; Cilnidipine 20 mg (n = 3),−28%
same,"Duration, % change",participants with SSc-RP [3]; Cilnidipine 20 mg (n = 3),−20%
same,Mean % reduction in RCS,participants with SSc-RP [3]; Cilnidipine 20 mg (n = 3),27.9%
same,Mean % reduction in duration,participants with SSc-RP [3]; Cilnidipine 20 mg (n = 3),20.0%
same,Mean % reduction in pain,participants with SSc-RP [3]; Cilnidipine 20 mg (n = 3),−11.8%
same,Mean % reduction in severity,participants with SSc-RP [3]; Cilnidipine 20 mg (n = 3),35.5%
same,Mean % reduction of weekly attacks,participants with SSc-RP [3]; Cilnidipine 20 mg (n = 3),43%
same,"Severity, % change",participants with SSc-RP [3]; Cilnidipine 20 mg (n = 3),−36%
same,"Weekly attack frequency, % change",participants with SSc-RP [3]; Cilnidipine 20 mg (n = 3),−43%
same,"Weekly attack frequency, % change, if baseline RCS <3.5",participants with SSc-RP [3]; Cilnidipine 20 mg (n = 3),−42%
same,"Subgroup Baseline RCS 3.5-7.5, % change",participants with SSc-RP [3]; Pooled Cilnidipine (n = 1),baseline −86%
same,"Subgroup attack frequency, <10 baseline, % change",participants with SSc-RP [3]; Pooled Cilnidipine (n = 2),baseline −55%
same,"Subgroup attack frequency, >10 baseline, % change",participants with SSc-RP [3]; Pooled Cilnidipine (n = 2),baseline −28%
same,Daily RCS Change,participants with SSc-RP [3]; Pooled Cilnidipine (n = 3),12% (n = 3)
same,"Subgroup Baseline RCS <3.5, % change",participants with SSc-RP [3]; Pooled Cilnidipine (n = 3),baseline −27%
same,"Average Raynaud's Pain, % change",participants with SSc-RP [3]; Pooled Cilnidipine (n = 7),−27%
same,"Duration, % change",participants with SSc-RP [3]; Pooled Cilnidipine (n = 7),20%
same,"Severity, % change",participants with SSc-RP [3]; Pooled Cilnidipine (n = 7),−16%
same,"Weekly attack frequency, % change",participants with SSc-RP [3]; Pooled Cilnidipine (n = 7),−41%
same,"Weekly attack frequency, % change, if baseline RCS <3.5",participants with SSc-RP [3]; Pooled Cilnidipine (n = 7),−27%
same,DSMB finding on Raynaud's endpoints,participants with SSc-RP [3]; both doses (10 and 20 mg),effective at reducing Raynaud's endpoints
same,Average Pain Score Change From Baseline [Mean (SD)],participants with SSc-RP [3]; [6],0.47 (0.558)
same,Average Pain Score Percent Change from Baseline [Mean (SD)],participants with SSc-RP [3]; [6],11.76 (27.478)† %
same,Average Pain Score [Mean (SD)] after treatment (Raynaud's pain),participants with SSc-RP [3]; [6],2.82 (2.268)
same,Average Pain Score Change From Baseline [Mean (SD)],participants with SSc-RP [3]; [7],−0.47 (2.025)
same,Average Pain Score Percent Change from Baseline [Mean (SD)],participants with SSc-RP [3]; [7],−26.89 (89.725)* %
same,Average Pain Score [Mean (SD)] after treatment (Raynaud's pain),participants with SSc-RP [3]; [7],1.28 (1.993)
same,tolerability,"participants with SSc-RP [4]; 10 mg and 20 mg, alone or in combination with tadalafil",well tolerated; also recorded: good tolerability
same,Safety: withdrawals,participants with SSc-RP [4]; Cilnidipine 20 mg column (n = 8),1 withdrawal
same,Safety: number of AE,"participants with SSc-RP [4]; Cilnidipine 20 mg, HA-mild (n = 8)",1AE (HA-mild;
same,Safety: number of AE,"participants with SSc-RP [4]; Pooled Cilnidipine, in combo with T (n = 9)",1AE (in combo
same,overall adverse event rate,participants with SSc-RP [4],17%
same,overall adverse event rate,participants with SSc-RP [4]; listed as Profervia,17% adverse
same,treatment discontinuations due to intolerance,participants with SSc-RP [4]; any dose of cilnidipine (n=17),no treatment discontinuations due to intolerance
same,severity grade of adverse events,participants with SSc-RP [4]; patients treated with cilnidipine,only Grade 1 Adverse Events (AEs) were reported; also recorded: only mild (Grade 1) adverse events occurred
same,time to achieve maximal plasma concentration (Tmax),[5],≤ 2 h
"CN1CC(=O)N2[C@H](c3ccc4c(c3)OCO4)c3[nH]c4ccccc4c3C[C@@H]2C1=O [Tadalafil, tadalafil]",Average Pain Score Change From Baseline [Mean (SD)],participants with SSc-RP [3]; [6],0.37 (2.219)
same,Average Pain Score Percent Change from Baseline [Mean (SD)],participants with SSc-RP [3]; [6],17.20 (64.838) %
same,Average Pain Score [Mean (SD)] after treatment (Raynaud's pain),participants with SSc-RP [3]; [6],5.84 (4.768)
